We go through eight compounds from ChEMBL document CHEMBL1158571, “Antiplasmodial lanostanes from the Ganoderma lucidum mushroom” (J Nat Prod, 2010).

pIC50: −log10 of the molar value. Active and inactive are the calls of the source. The calls are words filed in the database; no cut-off is given here.

Assay [1] deals with Plasmodium falciparum. Briefly: Antiplasmodial activity against Plasmodium falciparum. The class given is functional, organism-based.
In assay [2] the test system is Plasmodium falciparum. Briefly: Antiplasmodial activity against Plasmodium falciparum at 20 uM. Type of assay: functional, organism-based.

`C/C(=C/C(O)C[C@@H](C)[C@H]1CC[C@@]2(C)C3=CC[C@H]4C(C)(C)C(O)CC[C@]4(C)C3=CC[C@]12C)C(=O)O` (stereo partly drawn) gave a pIC50 in the assay on Plasmodium falciparum [1] of 4.96.
As to `C/C(=C/CC[C@@H](C)[C@H]1CC[C@@]2(C)C3=C(CC[C@]12C)[C@@]1(C)CCC(=O)C(C)(C)[C@@H]1CC3=O)C(=O)O`, in the assay on Plasmodium falciparum [2], the result was inactive.
In the case of `CC(C)=CCC/C(C)=C/CCC(C(=O)O)c1cc2cc(O)ccc2o1` (stereo not drawn), the result in the assay with Plasmodium falciparum [2] was inactive.
In the assay with Plasmodium falciparum [1], `C/C(=C/CC[C@@H](C)[C@H]1CC[C@@]2(C)C3=CC[C@H]4C(C)(C)C(=O)CC[C@]4(C)C3=CC[C@]12C)C(=O)O` [GANODERIC ACID S] had a pIC50 of 4.96.
`C/C(=C\CC[C@@H](C)[C@H]1C[C@@H](O)[C@@]2(C)C3=CC[C@H]4C(C)(C)C(=O)CC[C@]4(C)C3=CC[C@]12C)C(=O)O` [GANODERIC ACID TR 1]: the pIC50 in the assay with Plasmodium falciparum [1] was 4.74.
The same measure, in the same setting: the result for `C/C(=C/CC[C@@H](C)[C@H]1C[C@H](O)[C@@]2(C)C3=CC[C@H]4C(C)(C)C(=O)CC[C@]4(C)C3=CC[C@]12C)C(=O)O` [GANODERIC ACID TR] reads 4.70.
Same read-out and setting: the result for `C/C(C=O)=C/CC[C@@H](C)[C@H]1C[C@H](O)[C@@]2(C)C3=CC[C@H]4C(C)(C)C(=O)CC[C@]4(C)C3=CC[C@]12C` [GANODERIC ALDEHYDE TR] reads 5.22; that for `C[C@H](CC[C@@H](O)C(C)(C)O)[C@H]1CC[C@@]2(C)C3=CC[C@H]4C(C)(C)C(=O)CC[C@]4(C)C3=CC[C@]12C` [GANODERMANONDIOL], 4.89.

One may read the pIC50 as −log10 of the IC50, conventionally taken in molar units. Low readings indicate a high IC50, high ones a low IC50.
